# From PubChem BioAssay AID1959 (Broad Institute, 2009)
# The source made the active and inactive calls.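 Rule for the calls: active = growth-inhibition EC50 no more than tenfold above the top tested dose; inconclusive = flat fit between 30% and 70% inhibition, or unreliable fit; inactive = EC50 more than tenfold above the top tested dose.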
# Test system: E. coli NEB5alpha growth, BacTiter-Glo luminescence, 4 h
# Assay: Escherichia coli growth inhibition, dose response, counter-screen for MEX-5/POS-1 RNA-binding inhibitor project, luminescence, NEB5alpha (AID 1959);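 note: pUC19-transformed ampicillin-resistant cells grown in LB with ampicillin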
row,SMILES,EC50
1,CC(C)C(C(=O)O)N1C(=O)/C(=C/C=C/c2ccco2)SC1=S (configuration not stated),> 11 µM (inactive)
2,COc1ccc(CCCc2nc3ccccc3[nH]2)cc1,> 11 µM (inactive)
3,COc1ccc(CCNC(=O)c2cc3c(=O)n4cccc(C)c4nc3n(CCCN3CCOCC3)c2=N)cc1,> 11 µM (inactive)
4,COc1ccc2nc3ccccc3nc2c1NC(=O)c1ccccc1Cl,> 11 µM (inactive)
5,COC/C=C/C1=CC2=CC(=O)C(C)(OC(=O)CCC(=O)OC)C(=O)C2=CO1 (configuration not stated),> 11 µM (inactive)
6,Nc1cccc2c1C(=O)N(Cc1nnc(-c3ccccc3Br)o1)C2=O,> 11 µM (inactive)
7,CCOC(=O)C1Nc2ccc(C(F)(F)F)cc2C2C=CCC12 (configuration not stated),> 11 µM (inactive)
8,COc1ccc(N/C(=C(/C(Cl)=C(Cl)Cl)[N+](=O)[O-])n2nnc3ccccc32)cc1,> 11 µM (inactive)
9,CN1C(=O)C(=Cc2ccc(Sc3ccccc3)o2)C(=O)N(C)C1=S,> 11 µM (inactive)
10,CCOC(=O)[C@@]1(C#N)C(c2ccc(Cl)c(Cl)c2)[C@H](C(N)=O)N2C=C(C(C)=O)C=C[C@H]21 (some centres not stated),> 11 µM (inactive)
11,CCOC(=O)c1c(-c2ccccc2)csc1NC(=O)/C(C#N)=C/c1ccc(OC)c(OC)c1,> 11 µM (inactive)
12,CCOc1c(C=C(C#N)C#N)c2ccccc2n1CC,> 11 µM (inactive)
13,Cc1cc(=O)[nH]c(N/N=C/c2ccc(O)c(O)c2)n1,> 11 µM (inactive)
14,CCOC(=O)c1cc(=O)n2nc(-c3ccccc3F)nc2s1,> 11 µM (inactive)
15,O=[N+]([O-])c1ccc(Nc2ccccc2O)c2nonc12,> 11 µM (inactive)
16,Cc1ccccc1N=Nc1c(O)n(C)c2ccccc12,> 11 µM (inactive)
17,COC(=O)[C@@]1(C#N)[C@@H]2C=CC(C(C)=O)=CN2[C@@H](C(N)=O)[C@@H]1c1ccc(F)cc1,> 11 µM (inactive)
18,CCOCCCn1c(=NC(=O)c2cccs2)c(C#N)cc2c(=O)n3cccc(C)c3nc21,> 11 µM (inactive)
19,CCN1CCN(Cc2c(O)ccc3c2O/C(=C\c2ccccc2)C3=O)CC1,> 11 µM (inactive)
20,Oc1c(C=Nc2ccccc2Cl)[nH]c2ccccc12,> 11 µM (inactive)
21,O=C(O)c1ccc(-n2cccc2/C=C2/NC(=O)N(c3ccccc3)C2=O)cc1,> 11 µM (inactive)
22,O=C1N=C(N2CCOCC2)S/C1=C\c1ccc(-c2ccccc2Cl)o1,> 11 µM (inactive)
23,Cc1ccc(/C=C2\C(=O)NC(=S)N(c3cccc(F)c3)C2=O)o1,> 11 µM (inactive)

row,SMILES,EC50
1,C=CCOn1c(=O)c(-c2cc3ccccc3o2)[n+]([O-])c2ccccc21,> 11 µM (inactive)
2,CCc1ccc(/C=C2\SC(=S)N(CCCC(=O)Nc3ccccn3)C2=O)cc1,> 11 µM (inactive)
3,C=CC1=C(C(=O)O)N2C(=O)[C@@H](NC(=O)/C(=N\O)c3csc(N)n3)[C@H]2SC1 (stereo in doubt),0.521 µM
4,Cc1cc(/C=N/Nc2ccc([N+](=O)[O-])cn2)c(C)n1-c1cccc(C(=O)O)c1,> 11 µM (inactive)
5,CCN(CC)c1ccc(C=C2C(=O)OC(C)(C(C)(C)C)OC2=O)cc1 (configuration not stated),> 11 µM (inactive)
6,O=C(O)c1ccc(-c2ccc(/C=C3\NC(=O)N(Cc4ccc(Cl)cc4)C3=O)o2)cc1Cl,> 11 µM (inactive)
7,O=C(c1ccc(F)cc1)N1CCN(C2CCC(c3ccccc3)CC2)CC1 (configuration not stated),> 11 µM (inactive)
8,Cc1cc(C)c[n+](-c2[nH]c(=O)sc2/C=N/NC([S-])=Nc2ccccc2)c1,> 11 µM (inactive)
9,N#CC1=C(N)OC2=C(C(=O)CC(c3ccco3)C2)C1c1ccc(OCc2c(F)cccc2Cl)cc1 (configuration not stated),> 11 µM (inactive)
10,CN(C)C1=NC(=O)/C(=C/c2ccc(-c3ccc(S(N)(=O)=O)cc3)o2)S1,> 11 µM (inactive)
11,Cc1ccc(N/N=C/c2c(C)c(C#N)c(=O)n(C)c2O)cc1C,> 11 µM (inactive)
12,CCCCC1=CC2=CC(=O)C(C)(OC(=O)c3ccco3)C(=O)C2=CO1 (configuration not stated),> 11 µM (inactive)
13,COc1ccc(NC(=O)c2sc3nc(-c4cccnc4)ccc3c2N)cc1OC,> 11 µM (inactive)
14,COC(=O)c1ccc(-n2c(C)cc(C(=O)CCl)c2C)cc1,> 11 µM (inactive)
15,O=[N+]([O-])c1ccc(N=Nc2ncc[nH]2)cc1,> 11 µM (inactive)
16,O=C(O)c1cc(-c2ccc(/C=C3\NC(=O)N(c4ccc(Cl)cc4)C3=O)o2)ccc1Cl,> 11 µM (inactive)
17,COc1cc(C2NC(=S)NC(C)=C2C(=O)OC(C)C)ccc1OC(C)C (configuration not stated),> 11 µM (inactive)
18,COc1cc(C(c2c(C(=O)O)[nH]c3ccccc23)c2c(C(=O)O)[nH]c3ccccc23)ccc1OCc1ccccc1,> 11 µM (inactive)
19,N=c1n(CC(=O)c2ccc([N+](=O)[O-])cc2)c2ccccc2n1Cc1ccc(Cl)cc1,> 11 µM (inactive)
20,CC(=C\c1ccco1)/C=C1/SC(=S)N(CC(=O)O)C1=O,> 11 µM (inactive)
21,COc1ccc(NC(=O)Nc2ccc(OCc3ccccc3)cc2)cn1,> 11 µM (inactive)
22,C/C(=N/N=C(\C)c1ccccc1O)c1ccccc1O,> 11 µM (inactive)
23,Cc1[nH][nH]c(=O)c1C(c1ccc(-c2ccccc2C(=O)O)o1)c1c(C)[nH][nH]c1=O,> 11 µM (inactive)

row,SMILES,EC50
1,CC(=O)c1ccc(NC(=O)CSc2nnc(-c3ccncc3)o2)cc1,> 11 µM (inactive)
2,CCN1/C(=C2/SC(=S)N(NC(C)=O)C2=O)Sc2ccc(OC)cc21,> 11 µM (inactive)
3,Cc1cc(N2C(=O)C(O)=C(C(=O)c3cc4ccccc4o3)C2c2ccc([N+](=O)[O-])cc2)no1 (configuration not stated),> 11 µM (inactive)
4,O=C(NNC(=O)c1ccccc1O)c1ccco1,> 11 µM (inactive)
5,O=C(O)c1ccc2c3c(ncnc13)-c1ccccc1C2=O,> 11 µM (inactive)
6,Cc1ccc(Oc2nc(-c3ccccn3)nc3ccccc23)cc1,> 11 µM (inactive)
7,CC1(C)CC(=O)C2=C(C1)OC(/N=C/N1CCOCC1)=C(C#N)C2c1ccccc1 (configuration not stated),> 11 µM (inactive)
8,Cc1ccc(-c2ccccc2)n1-c1cccc(C(=O)O)c1,> 11 µM (inactive)
9,Cn1c(N=Nc2ccc(N3CCOCC3)cc2)[n+](C)c2ccccc21,> 11 µM (inactive)
10,O=C(O)c1ccc(S(=O)(=O)/N=C2\C=C(Nc3ccccc3F)C(=O)c3ccccc32)cc1,> 11 µM (inactive)
11,COC(=O)c1c(Cl)c2n3ccccc3c(C)c(-c3ccccc3)c-2c1C(=O)OC,> 11 µM (inactive)
12,CCOc1cc2c(cc1/C=C(/C#N)c1ccc(C(=O)O)cc1)OCO2,> 11 µM (inactive)
13,Cc1cc(/C=C2\C(=O)NC(=O)N(c3ccc(Cl)cc3)C2=O)c(C)n1-c1cccc(C(=O)O)c1,> 11 µM (inactive)
14,CCOC(=O)C(C(=O)OCC)c1cc(Br)c2noc3c2c1C(=O)c1ccccc1-3,> 11 µM (inactive)
15,COC(=O)CCCC1=CC2=CC(=O)C(C)(OC(=O)CCc3ccccc3)C(=O)C2=CO1 (configuration not stated),> 11 µM (inactive)
16,COc1ccc(Nc2nc3ccccc3nc2NS(=O)(=O)c2cccs2)cc1,> 11 µM (inactive)
17,Cc1cc(/C=N/n2cnnc2)c(C)n1-c1ccc(C(=O)O)cc1,> 11 µM (inactive)
18,Cn1c(O)c(C=NCCCCCCCCCCC(=O)O)c(=O)n(C)c1=O,> 11 µM (inactive)
19,Cc1ccc(CN2C(=O)N/C(=C\c3cccn3-c3cccc(C(=O)O)c3)C2=O)cc1,> 11 µM (inactive)
20,CCOc1cc(/C=C2/C(=O)ON=C2C)ccc1OCc1ccccc1F,> 11 µM (inactive)
21,CC(C)(C)OC(=O)N1CC=C2C(C#N)=C(N)C(C#N)(C#N)[C@H](c3cccnc3)[C@H]2C1,> 11 µM (inactive)
22,N#CC(C#N)=Cc1ccc(N2CCOCC2)cc1,> 11 µM (inactive)
23,c1ccc(C2=NNC(c3ccccn3)=NN2)nc1,> 11 µM (inactive)

row,SMILES,EC50
1,O=c1[nH][nH]c2cc(=O)n(-c3ccc(Cl)cc3)nc12,> 11 µM (inactive)
2,COc1cc2c3nnc(-c4ccccc4)c-3cn(Cc3ccccc3F)c2cc1OC,> 11 µM (inactive)
3,O=C(O)C(=O)/C(=C\c1cccc2ccccc12)c1ccc2ccccc2n1,> 11 µM (inactive)
4,COc1cc(/C=N/Nc2nc(=O)[nH]nc2C)ccc1O,> 11 µM (inactive)
5,CCOc1ccc(S(=O)(=O)Nc2cc(SCC(=O)O)c(O)c3ccccc23)cc1,> 11 µM (inactive)
6,Cc1cc(/C=C2\C(=O)NC(=O)N(c3cccc(F)c3)C2=O)c(C)n1-c1ccc(C(=O)O)c(Cl)c1,> 11 µM (inactive)
7,NS(=O)(=O)c1ccc(NC(=O)COC(=O)c2cn(-c3ccccc3)nc2-c2ccc(F)cc2)cc1,> 11 µM (inactive)
8,COc1ccc(/C=N/N=C2/CC(C)(C)Cc3n[nH]c(=O)cc32)cc1,> 11 µM (inactive)
9,CCOc1cc(/C=C2\C(=N)N3N=C(S(C)(=O)=O)SC3=NC2=O)ccc1OCCOc1cccc(OC)c1,> 11 µM (inactive)
10,O=C1CSC(=S)N1/N=C/c1ccc(O)c(O)c1O,> 11 µM (inactive)
11,CCN(CC)c1ccc(N=Nc2ncn[nH]2)cc1,> 11 µM (inactive)
12,N#C/C(=C/c1cccn1-c1cccc(C(=O)O)c1)c1ccc(F)cc1,> 11 µM (inactive)
13,CCCc1c(O)nc(SCC(=O)N2CCCCC2)[nH]c1=O,> 11 µM (inactive)
14,CC(C)CNC(=O)c1ccc(C2SCC(=O)N2Cc2ccccc2)cc1 (configuration not stated),> 11 µM (inactive)
15,O=C(CCc1ccc(O)c(O)c1)N/N=C/c1cc2c(cc1[N+](=O)[O-])OCO2,> 11 µM (inactive)
16,COc1ccc(NC(=O)c2sc3nc(-c4cccnc4)ccc3c2N)cc1,> 11 µM (inactive)
17,Nc1c(C(=O)N/N=C/c2cccnc2)oc2nc(-c3ccccc3)cc(-c3ccco3)c12,> 11 µM (inactive)
18,COCCn1c(=N)c(S(=O)(=O)c2ccc(Br)cc2)cc2c(=O)n3ccccc3nc21,> 11 µM (inactive)
19,COCCNC(=O)CCC(=O)NNc1nc2ccccc2c2nc(C)nn12,> 11 µM (inactive)
20,O=C(N1CCOCC1)N1CCC(n2nnc3cc(F)ccc32)CC1,> 11 µM (inactive)
21,COCCNC(=O)C1Nc2ccc(C(F)(F)F)cc2C2C=CCC12 (configuration not stated),> 11 µM (inactive)
22,Cc1ccc(-n2[nH]c(C)c(/C=N/NC(=O)c3ccc(O)cc3O)c2=O)cc1,> 11 µM (inactive)
23,COC(=O)[C@@H]1[C@H]2C[C@H]3c4[nH]c5ccccc5c4CCN3C[C@@H]2CC[C@@H]1O,> 11 µM (inactive)
